# Values of other authors as cited in patent US20230036624A1, “RETINOL-BASED COMPOSITION” (L'OREAL, priority 2019, published 2023).
# Tested on: human epidermal keratinocytes grown in monolayer culture
structure (smiles),measurement,value
CCCCCCCCCCCCCCCC(=O)OC/C=C(C)/C=C/C=C(C)/C=C/C1=C(C)CCCC1(C)C [retinyl palmitate],"effectiveness compared with retinol, measured at the transcriptomic level",less effective than retinol
